Converted amounts (≈) assume the structure as drawn. Read-outs that look alike come from different tables or passages of the source. Ends that are not written are not given here. Peptide text beside a SMILES is read from it.
Experiments:
A. baumannii = type: cell-based, Acinetobacter baumannii; details: A. baumannii; LB, 30° C., anaerobic, 10^5 CFU/ml
Procedure: (§1) In certain embodiments the MIC assays are performed as described herein in the Examples. For each organism, the media and growth conditions utilized is detailed in Table 8.
(§2) In certain embodiments the MIC assays are performed as follows: For each organism, the media and growth conditions utilized is detailed in Table 8.

MRSA = type: cell-based, Staphylococcus aureus; details: MRSA; BHI supplemented with 2% glucose, 37° C., aerobic, 10^5 CFU/ml
Procedure: as §1, §2

B. subtilis = type: cell-based, Bacillus subtilis
Procedure: as §1, §2

C. albicans = type: cell-based, Candida albicans
Procedure: as §1, §2

T. rubrum = type: cell-based, Trichophyton rubrum
Procedure: as §1, §2

S. epidermidis = type: cell-based
Procedure: as §1, §2

C. difficile = type: cell-based, Clostridium difficile
Procedure: as §1, §2

P. aeruginosa = type: cell-based, Pseudomonas aeruginosa; details: P. aeruginosa; MH, 37° C., aerobic, 10^5 CFU/ml
Procedure: as §1, §2

A. niger = type: cell-based, Aspergillus niger
Procedure: as §1, §2

S. mutans = type: cell-based, Streptococcus mutans
Procedure: as §1, §2

P. gingivalis = type: cell-based, Porphyromonas gingivalis
Procedure: as §1, §2

A. naeslundii = type: cell-based, Actinomyces naeslundii
Procedure: as §1, §2

S. pneumoniae = type: cell-based, Streptococcus pneumoniae
Procedure: as §1, §2

E. coli = type: cell-based, Escherichia coli
Procedure: as §1, §2

CC[C@H](C)[C@H](NC(=O)CNC(=O)[C@@H](N)CCSC)C(=O)N[C@H](C(=O)N[C@@H](C)C(=O)NCC(=O)N[C@H](C(=O)N[C@H](C(=O)N[C@@H](CCCCN)C(=O)N[C@@H](Cc1ccccc1)C(=O)N[C@H](C(=O)N[C@@H](CCCCN)C(=O)NCC(=O)N[C@@H](CC(C)C)C(=O)N[C@H](C(=O)N[C@@H](CCC(=O)O)C(=O)N[C@@H](CCCCN)C(=O)N[C@@H](Cc1ccccc1)C(=O)N[C@H](C(=O)NCC(=O)N[C@@H](CCCCN)C(=O)O)[C@@H](C)O)[C@@H](C)CC)[C@@H](C)CC)[C@@H](C)CC)[C@@H](C)CC)[C@@H](C)CC [PF-006]
MIC (A. baumannii): 50 µM (≈ 114 µg/mL) | MIC (MRSA): 50 µM (≈ 114 µg/mL) | MIC (B. subtilis; B. subtilis, BHI, 30° C., aerobic, 10^5 CFU/ml): 25 µM (≈ 56.9 µg/mL)

CC[C@H](C)[C@H](NC(=O)[C@H](CCCCN)NC(=O)[C@H](C)NC(=O)[C@H](Cc1ccccc1)NC(=O)[C@@H](NC(=O)[C@H](C)NC(=O)[C@H](CC(C)C)NC(=O)[C@H](CO)NC(=O)[C@@H](N)CC(C)C)[C@@H](C)O)C(=O)N[C@@H](Cc1ccccc1)C(=O)N[C@@H](CCSC)C(=O)N[C@H](C(=O)N[C@@H](CCCNC(=N)N)C(=O)N[C@@H](CO)C(=O)N[C@@H](CC(N)=O)C(=O)N[C@@H](Cc1c[nH]c2ccccc12)C(=O)N[C@@H](CO)C(=O)N[C@@H](CC(C)C)C(=O)N[C@@H](CCCCN)C(=O)N[C@@H](CCCNC(=N)N)C(=O)N[C@@H](Cc1ccccc1)C(=O)N[C@@H](CC(N)=O)C(=O)N[C@@H](CCCNC(=N)N)C(=O)N[C@@H](CC(C)C)C(=O)O)[C@@H](C)O [PF-278] (H-LSLATFAKIFMTRSNWSLKRFNRL-OH; N-terminus and C-terminus assumed)
MIC (C. albicans): 50 µM | MIC (T. rubrum): 50 µM | MIC (S. epidermidis): 50 µM

CC[C@H](C)[C@H](NC(=O)[C@H](CO)NC(=O)[C@H](CC(N)=O)NC(=O)[C@H](CCCNC(=N)N)NC(=O)[C@H](CC(N)=O)NC(=O)[C@H](CC(C)C)NC(=O)[C@H](CCCCN)NC(=O)[C@H](CCCCN)NC(=O)[C@H](CCCCN)NC(=O)[C@@H](NC(=O)[C@@H]1CCCN1C(=O)[C@H](CO)NC(=O)[C@H](CCCNC(=N)N)NC(=O)[C@@H](NC(=O)[C@H](CCCNC(=N)N)NC(=O)[C@@H](NC(=O)[C@@H](N)CCSC)[C@@H](C)CC)[C@@H](C)CC)[C@@H](C)O)C(=O)N[C@@H](CO)C(=O)N[C@@H](CC(=O)O)C(=O)N[C@@H](Cc1c[nH]c2ccccc12)C(=O)N[C@@H](CCCCN)C(=O)N[C@@H](CO)C(=O)N[C@@H](CC(N)=O)C(=O)N[C@H](C(=O)N[C@@H](CO)C(=O)NCC(=O)N[C@@H](CCCNC(=N)N)C(=O)N[C@@H](Cc1ccccc1)C(=O)N[C@@H](Cc1ccccc1)C(=O)N[C@@H](Cc1ccc(O)cc1)C(=O)O)[C@@H](C)O [PF-283] (H-MIRIRSPTKKKLNRNSISDWKSNTSGRFFY-OH; N-terminus and C-terminus assumed)
MIC (B. subtilis): 50 µM (≈ 182 µg/mL) | MIC (T. rubrum): 50 µM (≈ 182 µg/mL) | MIC (S. epidermidis): 50 µM (≈ 182 µg/mL)

CC[C@H](C)[C@H](NC(=O)[C@H](CCCCN)NC(=O)CNC(=O)[C@H](CC(C)C)NC(=O)[C@H](CC(N)=O)NC(=O)[C@@H](NC(=O)[C@H](CCC(=O)O)NC(=O)[C@H](CC(C)C)NC(=O)[C@H](Cc1c[nH]c2ccccc12)NC(=O)[C@H](CC(=O)O)NC(=O)[C@@H](NC(=O)[C@H](CC(C)C)NC(=O)[C@H](CCC(=O)O)NC(=O)[C@@H](N)Cc1ccccc1)C(C)C)[C@@H](C)O)C(=O)N[C@@H](CC(C)C)C(=O)N[C@@H](CCCCN)C(=O)N[C@@H](CO)C(=O)N[C@@H](CCCCN)C(=O)N[C@@H](CO)C(=O)N[C@@H](C)C(=O)O [PF-522] (H-FELVDWLETNLGKILKSKSA-OH; N-terminus and C-terminus assumed)
MIC (C. difficile): 25 µM (≈ 57.3 µg/mL)

CC[C@H](C)[C@H](NC(=O)[C@H](CCCNC(=N)N)NC(=O)[C@@H](NC(=O)[C@H](CCCCN)NC(=O)[C@H](CCCCN)NC(=O)[C@H](CC(C)C)NC(=O)[C@H](CC(C)C)NC(=O)[C@H](CCCCN)NC(=O)[C@H](CCCNC(=N)N)NC(=O)[C@H](Cc1c[nH]cn1)NC(=O)[C@H](CCCCN)NC(=O)[C@H](CCCCN)NC(=O)[C@H](CCCCN)NC(=O)[C@H](C)NC(=O)[C@H](CCSC)NC(=O)[C@H](CCCNC(=N)N)NC(=O)[C@H](CCCCN)NC(=O)[C@H](CCCNC(=N)N)NC(=O)[C@H](CCCNC(=N)N)NC(=O)[C@H](CCCCN)NC(=O)[C@H](CCCCN)NC(=O)[C@@H](NC(=O)[C@@H](NC(=O)[C@H](CO)NC(=O)CN)C(C)C)[C@@H](C)CC)[C@@H](C)O)C(=O)N[C@@H](CCC(N)=O)C(=O)N[C@@H](CCCNC(=N)N)C(=O)N[C@@H](CCCNC(=N)N)C(=O)N[C@@H](CCCNC(=N)N)C(=O)N[C@@H](C)C(=O)NCC(=O)N[C@@H](CCCCN)C(=O)O [PF-527] (H-GSVIKKRRKRMAKKKHRKLLKKTRIQRRRAGK-OH; N-terminus and C-terminus assumed)
MIC (P. aeruginosa): 50 µM (≈ 197 µg/mL) | MIC (MRSA): 50 µM (≈ 197 µg/mL) | MIC (A. niger; A. niger, Potato Dextrose Agar, 25° C., aerobic, 10^5 CFU/ml): 50 µM (≈ 197 µg/mL) | MIC (T. rubrum; T. rubrum, Potato Dextrose Agar, 25° C., aerobic, 10^5 CFU/ml): 25 µM (≈ 98.5 µg/mL) | MIC (S. epidermidis; S. epidermidis, BHI supplemented with 0.25% glucose, 37° C., aerobic, 10^5 CFU/ml): 25 µM (≈ 98.5 µg/mL)

CC(C)[C@H](NC(=O)[C@H](CCCCN)NC(=O)[C@H](Cc1c[nH]c2ccccc12)NC(=O)CNC(=O)[C@@H](NC(=O)[C@H](CC(=O)O)NC(=O)[C@H](CO)NC(=O)[C@H](Cc1c[nH]cn1)NC(=O)CNC(=O)[C@@H]1CCCN1C(=O)[C@@H](NC(=O)[C@H](CCCNC(=N)N)NC(=O)[C@H](CO)NC(=O)[C@@H](N)Cc1c[nH]c2ccccc12)C(C)C)[C@@H](C)O)C(=O)N[C@@H](Cc1c[nH]c2ccccc12)C(=O)N[C@@H](Cc1c[nH]cn1)C(=O)N[C@@H](CCCNC(=N)N)C(=O)N[C@@H](Cc1c[nH]c2ccccc12)C(=O)O [PF-547] (H-WSRVPGHSDTGWKVWHRW-OH; N-terminus and C-terminus assumed)
MIC (S. mutans): 12.5 µM (≈ 28.5 µg/mL) | MIC (B. subtilis): 25 µM (≈ 56.9 µg/mL) | MIC (T. rubrum): 25 µM (≈ 56.9 µg/mL)

CC[C@H](C)[C@H](NC(=O)[C@H](CCCNC(=N)N)NC(=O)[C@@H]1CCCN1C(=O)[C@H](CCC(=O)O)NC(=O)[C@H](CC(C)C)NC(=O)[C@@H]1CCCN1C(=O)[C@H](CC(=O)O)NC(=O)[C@@H](N)CC(C)C)C(=O)N[C@@H](C)C(=O)N1CCC[C@H]1C(=O)N1CCC[C@H]1C(=O)NCC(=O)N[C@@H](CC(=O)O)C(=O)N[C@@H](CCCNC(=N)N)C(=O)N[C@@H](CO)C(=O)N[C@@H](Cc1c[nH]cn1)C(=O)N[C@@H](CCC(N)=O)C(=O)NCC(=O)N[C@@H](C)C(=O)N1CCC[C@H]1C(=O)N[C@@H](C)C(=O)N[C@@H](CS)C(=O)N[C@@H](Cc1c[nH]cn1)C(=O)N[C@@H](CCCNC(=N)N)C(=O)N[C@@H](CC(=O)O)C(=O)N1CCC[C@H]1C(=O)N[C@@H](CC(C)C)C(=O)N[C@@H](CCCNC(=N)N)C(=O)NCC(=O)N[C@@H](CCCNC(=N)N)C(=O)N[C@@H](CO)C(=O)N[C@@H](C)C(=O)N[C@@H](CCCNC(=N)N)C(=O)N[C@@H](CC(=O)O)C(=O)N[C@@H](C)C(=O)N[C@@H](CCC(=O)O)C(=O)N[C@@H](CCCNC(=N)N)C(=O)O [PF-C019] (H-LDPLEPRIAPPGDRSHQGAPACHRDPLRGRSARDAER-OH; N-terminus and C-terminus assumed)
MIC (A. niger): 50 µM (≈ 204 µg/mL) | MIC (S. mutans): 25 µM (≈ 102 µg/mL) | MIC (T. rubrum): 50 µM (≈ 204 µg/mL)

CC(C)[C@H](NC(=O)[C@@H](N)Cc1ccc(O)cc1)C(=O)N[C@@H](CC(N)=O)C(=O)N[C@@H](Cc1ccc(O)cc1)C(=O)N[C@@H](CC(N)=O)C(=O)N[C@@H](CCC(N)=O)C(=O)N[C@@H](CO)C(=O)N[C@@H](Cc1ccccc1)C(=O)N[C@@H](CC(N)=O)C(=O)N[C@@H](CO)C(=O)NCC(=O)N[C@@H](Cc1c[nH]c2ccccc12)C(=O)O [PF-C220] (H-YVNYNQSFNSGW-OH; N-terminus and C-terminus assumed)
MIC (C. albicans): 50 µM (≈ 73.9 µg/mL)

MPVSKKRYMLSSAYATALGICYGQVATDEKESEITAIPDLLDYLSVEEYLL [PF-C163]
MIC (P. gingivalis): 50 µM | MIC (A. naeslundii): 50 µM | MIC (S. epidermidis): 50 µM

TKKIELKRFVDAFVKKSYENYILERELKKLIKAINEELPTK [PF-600]
MIC (S. pneumoniae): 50 µM | MIC (E. coli): 50 µM
